pEC50: −log10 of the molar value. Where two headings read alike, the source gives them in different places.

One test addresses T1, rat TRPV2 (rTRPV2-eGFP) (Rattus norvegicus, UniProt Q9WUD2).
T1 sequence (Q9WUD2 1-761): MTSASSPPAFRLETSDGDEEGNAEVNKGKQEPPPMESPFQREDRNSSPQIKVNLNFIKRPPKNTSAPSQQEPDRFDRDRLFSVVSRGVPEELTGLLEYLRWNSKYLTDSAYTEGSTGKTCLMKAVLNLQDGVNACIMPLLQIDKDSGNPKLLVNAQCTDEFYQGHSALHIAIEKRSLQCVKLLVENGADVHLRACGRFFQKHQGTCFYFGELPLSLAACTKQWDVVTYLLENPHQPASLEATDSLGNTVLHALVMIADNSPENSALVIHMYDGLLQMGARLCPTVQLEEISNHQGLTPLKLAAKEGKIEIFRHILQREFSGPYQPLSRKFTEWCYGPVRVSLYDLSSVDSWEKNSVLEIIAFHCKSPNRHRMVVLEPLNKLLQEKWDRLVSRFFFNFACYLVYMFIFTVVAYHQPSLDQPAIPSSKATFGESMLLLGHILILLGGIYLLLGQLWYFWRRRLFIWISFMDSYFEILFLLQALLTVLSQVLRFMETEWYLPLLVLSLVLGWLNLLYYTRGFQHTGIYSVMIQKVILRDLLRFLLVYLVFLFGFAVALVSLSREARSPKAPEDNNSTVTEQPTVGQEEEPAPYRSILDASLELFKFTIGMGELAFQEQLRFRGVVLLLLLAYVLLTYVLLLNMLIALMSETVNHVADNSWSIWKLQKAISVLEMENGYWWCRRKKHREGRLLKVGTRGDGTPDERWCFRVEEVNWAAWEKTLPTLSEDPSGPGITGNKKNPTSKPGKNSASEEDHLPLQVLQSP
The test is classed as biochemical. The conditions noted are these: for pEC50: no inhibitor.

A further test concerns human TRPV2. To be noted: ref [40]; cited from earlier work.
A further test deals with mouse or rat TRPV2. The conditions noted are these: read-out: reported EC50 values; ref [40]; cited from earlier work.
The next test has as its system rat TRPV2. To be noted: cells pretreated with 2.5 mM PBCD; ref [22]; cited from earlier work.

For orientation: pEC50 means −log10 of the EC50, conventionally taken in molar units. For `C=C(C)[C@@H]1CCC(C)=C[C@H]1c1c(O)cc(CCCCC)cc1O` [CBD, cannabidiol], the pEC50 at rat TRPV2 (rTRPV2-eGFP) (EC50 (Bayesian, 90% confidence interval in brackets), TRPV2-GFP vesicles) is 3.96; in the test on mouse or rat TRPV2 it was 6.00 to 8.00; in the test with rat TRPV2, 5.43. In the test on human TRPV2, the activation result was “no activation of human TRPV2”. For the compound `O=C(O)c1ccc(S(=O)(=O)N2CCCCC2)cc1` [Compound 6, 4-(Piperidine-1-sulfonyl)-benzoic acid], at rat TRPV2 (rTRPV2-eGFP), the “Confidence that EC50 is lower than that of PBCD (Bayesian hypothesis test)” value was 84%. lysophosphatidylcholine [LPC]: on rat TRPV2 (rTRPV2-eGFP) (read-out: EC50 (Bayesian, 90% confidence interval in brackets), TRPV2-GFP vesicles), the pEC50 was 4.44. As to `COc1cc(CNC(=O)CCCC/C=C/C(C)C)ccc1O` [capsaicin], the “Activation/modulation of TRPV2 (fluorescence signal)” value at rat TRPV2 (rTRPV2-eGFP) (negative controls, TRPV2-GFP vesicles) is given as “no measurable increase of fluorescence signal”.

These data come from publication PMC10796807 (Computational and Structural Biotechnology Journal, 2023).
